The test system of series [1] is B(a)P-induced lung toxicity. Put plainly: Short term single dose B(a)P-induced lung toxicity in mice. It counts as in vivo, CD1/IGS mice. The source says:
Chronic exposure to carcinogens that are present in tobacco smoking or air pollution is a well-known cause of lung cancer. One of the most important strategies to manage lung cancer is chemoprevention, which uses synthetic or natural products to block or reverse lung cancer initiation, promotion, and progression. Benzo(a)pyrene (B(a)P), a polycyclic aromatic hydrocarbon, is a pro-carcinogen ubiquitously present as pollutants in the environment. It is mostly produced during cigarette smoking and is present in automobile exhausts, and causes lung toxicity and lung cancer after metabolic activation. A single dose B(a)P-induced lung toxicity study in mice was used to evaluate the protective effects of carvedilol. In male CD1/IGS mice, carvedilol was orally administered (20 mg/kg body weight) once a day for 7 days. The mice were then treated with a single dose B(a)P via oral gavage (125 mg/kg body weight) on day 7, 30 min after the drug treatment. Mice were sacrificed 24 hours after B(a)P treatment. As expected, B(a)P increased the plasma levels of lactate dehydrogenase (LDH) and Malondialdehyde (MDA) for lipid peroxides (LPO).

The subject of series [2] is 4T1. Put plainly: Triple negative breast tumor 4T1 in BalB/C mice. It counts as in vivo. The protocol:
To investigate the effect of carvedilol and R-carvedilol on breast cancer growth, the BalB/C mice were treated with the drugs (20 mg/kg/day) in drinking water for two weeks before the mice were inoculated with murine triple negative breast tumor 4T1 in the fourth left mammary fat pad. […] The same experimental model was treated with carvedilol or R-carvedilol, in combination with the anti-PD-1 therapy.

The nature of series [3]: In vitro penetration and skin retention, Franz diffusion cells and porcine ear skin. Conditions: Franz diffusion cells, porcine ear skin; free drug in water or PEG 400. It counts as in vitro ADME. The source says:
Thus, topical route has been investigated as a major approach in the application of R-carvedilol for clinical skin cancer prevention. In order to prepare for clinical studies, we prepared three types of transfersome-based formulation for R-carvedilol using different amount of phospholipid (soy phosphatidylcholine, SPC) or edge activator (tween-80). The particle sizes, zeta potential, encapsulation efficiency and stability for these transfersomes were very similar to those of T-CAR. […] This confirms that nano-transfersomes provide a promising delivery system for both carvedilol and R-carvedilol. Thus, this selected transfersomal formulation for R-carvedilol, named “T-RCAR”, will be further characterized in preclinical model systems and examined in clinical trials in the future.

The nature of series [4]: Systolic blood pressure of mice, noninvasive tail-cuff system. It counts as in vivo. As to conditions: drinking water, 32 mg/kg/day, 2 weeks, male SKH-1 mice. The protocol:
SKH-1 mice were given racemic carvedilol or R-carvedilol in drinking water for two weeks (32 mg/kg/day). Blood pressure was examined in mice utilizing a Kent CODATM noninvasive tail-cuff system.

In series [5] the test system is JB6. Put plainly: EGF-induced JB6 transformation. It counts as cell-based, mouse.
The test system of series [6] is UV induced skin carcinogenesis. Put plainly: Chronic UV induced skin carcinogenesis model. It counts as in vivo, mice.
Series [7] has as its system B(a)P-induced lung tumor. Put plainly: Long term B(a)P-induced lung carcinogenesis in A/J mice. It counts as in vivo. As to conditions: for tumor incidence: B(a)P only 100%. Here is the method: To examine the chemopreventive efficacy of carvedilol, we used an established lung carcinogenesis model in A/J mice induced by B(a)P. Two drug doses were examined: 20 mg/kg (H) and 3.2 mg/kg (L). The mice were randomly divided by body weight into seven groups at the beginning of the experiments. To induce lung tumor, mice were given a single intraperitoneal (i.p.) injection of B(a)P at 100 mg/kg body weight in 0.2 ml tricaprylin. The following are treatment groups: (1) vehicle control, n=8; (2) B(a)P only, n=9; (3) B(a)P+gefitinib 400 mg/kg, weekly oral gavage, positive control, n=10; (4) B(a)P+carvedilol 20 mg/kg drinking water, n=9; (5) B(a)P+carvedilol 3.2 mg/kg drinking water, n=8; (6) B(a)P+R-carvedilol 20 mg/kg drinking water, n=9; (7) B(a)P+R-carvedilol 3.2 mg/kg drinking water, n=10. The mice began the drug treatments 3 weeks before B(a)P treatment and terminated at 23 weeks after B(a)P treatment. […] Tumor multiplicity was determined by counting surface tumors in fixed lung under a dissecting microscope. […] The tumor incidence for gefitinib group was 70%. The tumor incidence was 89% and 50% for high and low dose carvedilol, respectively. The tumor incidence was 67% and 70% for high and low dose R-carvedilol, respectively.

The nature of series [8]: Plasma concentration in mice given drug in drinking water. It counts as in vivo. As to conditions: 178 μg/mL in drinking water (32 mg/kg/day), 2 weeks, 95% CI in brackets.
The conditions of series [9]: R-carvedilol alone, healthy human volunteers; cited from earlier work.
The nature of series [10]: Ex vivo permeation across rat skin, Franz diffusion cells. It counts as in vitro ADME. As to conditions: control formulation: PBS pH 7.4 with 40% v/v PEG 400. Here is the method: Instead of nanoparticle-based topical delivery, the present inventors have explored other methods of skin delivery of drugs. They investigated the effects of natural penetration enhancers on the ex vivo permeation of carvedilol across rat skin. […] The drug formulations containing carvedilol or R-carvedilol (200 μg/mL) (1 mL) was loaded on Franz diffusion cells using excised rat dorsal skin (with hair removed). […] D-limonene is isolated from orange peel, and is a cheap and safe option to delivery carvedilol (same for R-carvedilol) for skin cancer prevention. D-limonene is present in many skin commercial products such as perfumes and essential oils. Therefore, this invention provides another novel approach of making skin targeting formulation for both carvedilol and R-carvedilol. This approach of making skin formulation is not only safe but also easier to scale up to industry level for making large amount.

[11] abbreviates: oral 20 mg/kg once a day for 7 days, B(a)P 125 mg/kg on day 7.

Regarding `COc1ccccc1OCCNC[C@@H](O)COc1cccc2[nH]c3ccccc3c12` [R-carvedilol], in series [1] (setting [11]), the “plasma LDH levels” value is given as “significantly attenuated” and the “plasma MDA levels (LPO)” value was “significantly attenuated”. In addition, the “protection against B(a)P-induced histological changes and COX-2 expression” value in series [1] (oral, compared with racemic carvedilol) is “same degree of protection as the racemic carvedilol”. In addition, in [2] (20 mg/kg/day in drinking water from two weeks before inoculation, monotherapy), the tumor growth entry is given as “significantly reduced”. For the same compound, in series [2] (same 4T1 model, combined with anti-PD-1), the “efficacy in combination with anti-PD-1 therapy” value is given as “enhanced the efficacy of anti-PD-1 monotherapy”. In series [3], the skin permeation result is recorded as “very little” and the skin retention entry is listed as “very little”. Moreover, in series [4], the “mean systolic blood pressure” value is “did not alter blood pressure”. Also, the “inhibitory effects on EGF-induced JB6 transformation” value in [5] is reported as “nearly identical inhibitory effects”. The skin tumor development entry in series [6] (topical 10 μM in acetone 30 min before UV) is given as “strongly inhibited skin tumor development”. For the same compound, in series [6] (topical, chronic UV), the “delay in tumor formation compared to UV only controls” value came to 5 week. Moreover, the tumor inhibition entry in [7] (20 and 3.2 mg/kg drinking water) is “same trend of tumor inhibition as carvedilol”. In series [7] (high dose 20 mg/kg drinking water), this compound returned a tumor incidence of 67%. For the same compound, in series [7] (low dose 3.2 mg/kg drinking water), the tumor incidence is on record as 70%. The compound also registered a mean plasma concentration in series [8] of 25.13 ng/mL. For the same compound, the adverse effects result in series [9] is “without major adverse effects”. Moreover, the skin permeation result in series [10] is “minimal”.

Values taken from patent publication US20220273617A1, “ANTI-CANCER, ANTI-INFLAMMATORY AND IMMUNOMODULATORY ACTIVITY OF R-CARVEDILOL AND METHODS OF USE” (priority 2021, published 2022).
